Results published in patent US20130338106A1, “COMPOUNDS INHIBITING LEUCINE-RICH REPEAT KINASE ENZYME ACTIVITY” (priority 2011, published 2013).

molecular target: T1, LRRK2 G2019S mutant kinase (Homo sapiens, UniProt Q5S007, G2019S); assay: LRRK2 G2019S LanthaScreen TR-FRET kinase assay; format: biochemical; conditions: LRRK2 G2019S GST-tagged protein, 100 μM ATP, LRRKtide substrate; read-out: IC50 (potency)
T1 construct: GST; purchased Invitrogen PV4882
Protocol: Activity of compounds against LRRK2 G2019S mutant kinase function was tested in a LANTHAScreen® assay as follows: Compounds were diluted in 100% DMSO to the desired test concentrations in white, low-volume 384-well plates (PerkinElmer ProxiPlate® PN: 6008280). TR-FRET kinase reactions (10 μL) were performed with 75 nM Fluorescein-ERM (LRRKtide, Invitrogen, PN:PV4901) substrate in a final assay buffer containing 100 μM ATP and 2 mM DTT diluted in commercially available Kinase Buffer S (Invitrogen PN: PV5213). The final solvent concentration in the assay was 1% DMSO. Reactions were initiated with the addition of 10 ng/well of LRRK2 02019S, GST-tagged protein (Invitrogen PN: PV4882). After incubation of the foil sealed reaction plates at room temperature with low speed mixing for 1 hour, the kinase reaction was stopped and the amount of substrate phosphorylation was detected by addition of 10 μL of 10 mM EDTA and 2 nM Tb-anti-pERM (pLRRKtide antibody, Invitrogen, PN: PV4898) antibody in TR-FRET dilution buffer (Invitrogen PN: PV3574). After a 30 minute incubation at room temperature with low speed mixing, foil seals were removed and measurements were obtained on a PerkinElmer EnVision with excitation 340 nm, emission 520 nm (channel 1): 495 nm (channel 2) settings. Generation of raw data and workup of data to derive the IC50 (potency) and maximal inhibition at concentrations tested were performed using Merck's Assay Data Analyzer (ADA) software.

T1 sequence (Q5S007 whole entry G2019S): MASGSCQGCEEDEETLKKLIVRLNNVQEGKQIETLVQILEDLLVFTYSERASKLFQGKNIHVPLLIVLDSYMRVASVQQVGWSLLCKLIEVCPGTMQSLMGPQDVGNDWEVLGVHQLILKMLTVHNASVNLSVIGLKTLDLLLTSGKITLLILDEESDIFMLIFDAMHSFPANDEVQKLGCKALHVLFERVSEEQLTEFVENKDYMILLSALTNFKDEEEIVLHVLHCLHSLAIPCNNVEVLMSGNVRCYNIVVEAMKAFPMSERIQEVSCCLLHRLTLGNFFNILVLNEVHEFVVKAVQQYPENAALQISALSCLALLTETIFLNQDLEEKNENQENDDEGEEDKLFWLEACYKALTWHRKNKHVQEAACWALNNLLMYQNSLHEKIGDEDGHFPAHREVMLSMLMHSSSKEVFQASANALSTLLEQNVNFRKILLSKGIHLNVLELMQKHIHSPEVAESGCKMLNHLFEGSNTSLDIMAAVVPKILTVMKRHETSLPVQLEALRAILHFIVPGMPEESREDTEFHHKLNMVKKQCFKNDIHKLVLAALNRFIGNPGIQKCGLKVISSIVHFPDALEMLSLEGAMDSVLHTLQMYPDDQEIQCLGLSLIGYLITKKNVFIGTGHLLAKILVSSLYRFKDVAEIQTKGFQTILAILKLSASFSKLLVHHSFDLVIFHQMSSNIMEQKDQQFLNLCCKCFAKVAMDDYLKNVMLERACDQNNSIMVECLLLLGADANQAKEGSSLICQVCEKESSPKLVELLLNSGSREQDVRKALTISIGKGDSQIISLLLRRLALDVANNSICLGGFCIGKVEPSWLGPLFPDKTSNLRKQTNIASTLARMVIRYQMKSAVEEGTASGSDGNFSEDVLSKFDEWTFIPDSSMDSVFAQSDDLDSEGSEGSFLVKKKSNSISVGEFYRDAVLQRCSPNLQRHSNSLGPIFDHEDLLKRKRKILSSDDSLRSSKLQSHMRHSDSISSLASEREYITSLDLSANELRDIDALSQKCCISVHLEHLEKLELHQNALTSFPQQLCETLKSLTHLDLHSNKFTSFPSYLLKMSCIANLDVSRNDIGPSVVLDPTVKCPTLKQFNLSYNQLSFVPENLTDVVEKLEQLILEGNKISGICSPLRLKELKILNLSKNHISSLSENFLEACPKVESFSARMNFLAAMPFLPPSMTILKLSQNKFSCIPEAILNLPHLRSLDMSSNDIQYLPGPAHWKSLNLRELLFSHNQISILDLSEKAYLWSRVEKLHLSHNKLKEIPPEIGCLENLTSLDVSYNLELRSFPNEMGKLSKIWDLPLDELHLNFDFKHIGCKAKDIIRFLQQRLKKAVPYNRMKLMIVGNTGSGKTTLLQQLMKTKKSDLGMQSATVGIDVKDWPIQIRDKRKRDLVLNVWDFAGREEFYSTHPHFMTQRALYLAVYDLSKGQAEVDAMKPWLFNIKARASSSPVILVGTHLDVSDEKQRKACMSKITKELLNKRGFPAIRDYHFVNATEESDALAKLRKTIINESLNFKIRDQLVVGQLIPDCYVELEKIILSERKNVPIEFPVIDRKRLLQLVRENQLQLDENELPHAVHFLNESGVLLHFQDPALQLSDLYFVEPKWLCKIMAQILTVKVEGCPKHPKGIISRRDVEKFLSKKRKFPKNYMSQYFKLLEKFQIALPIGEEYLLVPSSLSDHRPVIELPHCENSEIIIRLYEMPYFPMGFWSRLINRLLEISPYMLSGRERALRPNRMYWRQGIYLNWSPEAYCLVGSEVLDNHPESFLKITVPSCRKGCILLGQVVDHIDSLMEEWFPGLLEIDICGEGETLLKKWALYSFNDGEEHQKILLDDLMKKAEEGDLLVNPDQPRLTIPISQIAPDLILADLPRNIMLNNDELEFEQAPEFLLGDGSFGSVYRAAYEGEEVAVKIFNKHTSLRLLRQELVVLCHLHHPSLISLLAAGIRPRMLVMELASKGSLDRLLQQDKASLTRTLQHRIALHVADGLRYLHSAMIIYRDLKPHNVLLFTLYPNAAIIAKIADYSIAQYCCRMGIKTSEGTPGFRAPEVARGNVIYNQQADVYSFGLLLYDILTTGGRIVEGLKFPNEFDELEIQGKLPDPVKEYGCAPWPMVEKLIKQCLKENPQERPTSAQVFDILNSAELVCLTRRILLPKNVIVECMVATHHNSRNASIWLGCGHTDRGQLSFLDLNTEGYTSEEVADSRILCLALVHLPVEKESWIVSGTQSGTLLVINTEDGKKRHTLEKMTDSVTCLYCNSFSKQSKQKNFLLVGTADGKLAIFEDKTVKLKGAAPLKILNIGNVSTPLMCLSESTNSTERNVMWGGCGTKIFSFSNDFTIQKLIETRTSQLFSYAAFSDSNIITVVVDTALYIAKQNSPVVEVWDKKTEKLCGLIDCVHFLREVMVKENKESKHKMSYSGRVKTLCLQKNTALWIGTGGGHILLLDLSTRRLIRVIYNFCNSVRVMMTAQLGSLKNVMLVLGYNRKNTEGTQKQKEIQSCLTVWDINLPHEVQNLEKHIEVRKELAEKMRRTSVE

Q: `CC1(C)CC(=O)c2c(SC3CCCC3)sc(-c3ccn(C(=O)NC4CCN(C(=O)C(F)(F)F)CC4)n3)c2C1` [Example 65, 3-[3-(Cyclopentylsulfanyl)-6,6-dimethyl-4-oxo-4,5,6,7-tetrahydro-2-benzothiophen-1-yl]-N-[1-(trifluoroacetyl)piperidin-4-yl]-1H-pyrazole-1-carboxamide] was tested. Which IC50 did it give?
A: 330 nM

Q: How did the IC50 turn out when `CC1(C)CC(=O)c2c(SCCCCCCN=[N+]=[N-])sc(-c3cc[nH]n3)c2C1` [Example 20, 3-[(6-Azidohexyl)sulfanyl]-6,6-dimethyl-1-(1H-pyrazol-3-yl)-6,7-dihydro-2-benzothiophen-4(5H)-one] was run?
A: 490 nM

Q: How did the IC50 turn out when `COc1ccc(NC(=O)n2ccc(-c3sc(SC4CCCC4)c4c3CC(C)(C)CC4=O)n2)cc1` [Example 58, 3-[3-(Cyclopentylsulfanyl)-6,6-dimethyl-4-oxo-4,5,6,7-tetrahydro-2-benzothiophen-1-yl]-N-(4-methoxyphenyl)-1H-pyrazole-1-carboxamide] was run?
A: 110 nM

Q: With `CSc1sc(-c2ccn(C(=O)OC(C)(C)C)n2)c2c1C(=O)CCC2` [Example 85, tert-Butyl 3-[3-(methylsulfanyl)-4-oxo-4,5,6,7-tetrahydro-2-benzothiophen-1-yl]-1H-pyrazole-1-carboxylate] as the compound, how does the IC50 read?
A: 1100 nM

Q: Which IC50 does the source give for `CC1(C)CC(=O)c2c(SC3CCCC3)sc(-c3ccn(C(=O)Nc4ccc(C(F)(F)F)cc4)n3)c2C1` [Example 59, 3-[3-(Cyclopentylsulfanyl)-6,6-dimethyl-4-oxo-4,5,6,7-tetrahydro-2-benzothiophen-1-yl]-N-[4-(trifluoromethyl)phenyl]-1H-pyrazole-1-carboxamide] here?
A: 93 nM

Q: Which IC50 does the source give for `CC(C)Oc1sc(-c2cc[nH]n2)c2c1C(=O)CC(C)(C)C2` [Example 54, 6,6-Dimethyl-3-(propan-2-yloxy)-1-(1H-pyrazol-3-yl)-6,7-dihydro-2-benzothiophen-4(5H)-one] here?
A: 790 nM

Q: With `CC1(C)CC(=O)c2c(SC3CCCC3)sc(-c3ccn(C(=O)c4ccc(Cl)nc4)n3)c2C1` [Example 80, 1-{1-[(6-Chloropyridin-3-yl)carbonyl]-1H-pyrazol-3-yl}-3-(cyclopentylsulfanyl)-6,6-dimethyl-6,7-dihydro-2-benzothiophen-4(5H)-one] as the compound, how does the IC50 read?
A: 570 nM

Q: For `CC1(C)CC(=O)c2c(SC3CCCC3)sc(-c3ccn(C(=O)NCCc4ccccc4)n3)c2C1` [Example 69, 3-[3-(Cyclopentylsulfanyl)-6,6-dimethyl-4-oxo-4,5,6,7-tetrahydro-2-benzothiophen-1-yl]-N-(2-phenylethyl)-1H-pyrazole-1-carboxamide], which IC50 is on record?
A: 4200 nM

Q: `CC1(C)CC(=O)c2c(N[C@H]3CC[C@H](O)CC3)sc(-c3cc[nH]n3)c2C1` [Example 51, 3-[(trans-4-Hydroxycyclohexyl)amino]-6,6-dimethyl-1-(1H-pyrazol-3-yl)-6,7-dihydro-2-benzothiophen-4(5H)-one] was tested. Which IC50 did it give?
A: 220 nM

Q: For `CC1(C)CC(=O)c2c(SCC3CC3)sc(-c3cc[nH]n3)c2C1` [Example 22, 3-[(Cyclopropylmethyl)sulfanyl]-6,6-dimethyl-1-(1H-pyrazol-3-yl)-6,7-dihydro-2-benzothiophen-4(5H)-one], which IC50 is on record?
A: 130 nM

Q: Which IC50 does the source give for `CC1(C)CC(=O)c2c(OC3CCCC3)sc(-c3cc[nH]n3)c2C1` [Example 52, 3-(Cyclopentyloxy)-6,6-dimethyl-1-(1H-pyrazol-3-yl)-6,7-dihydro-2-benzothiophen-4(5H)-one] here?
A: 300 nM

Q: With `CC1(C)CC(=O)c2c(SC3CCCC3)sc(-c3ccn(C(=O)NC(C)(C)C)n3)c2C1` [Example 70, N-tert-Butyl-3-[3-(cyclopentylsulfanyl)-6,6-dimethyl-4-oxo-4,5,6,7-tetrahydro-2-benzothiophen-1-yl]-1H-pyrazole-1-carboxamide] as the compound, how does the IC50 read?
A: 1300 nM

Q: Which IC50 does the source give for `COc1ccc(C(=O)n2ccc(-c3sc(SC4CCCC4)c4c3CC(C)(C)CC4=O)n2)cc1` [Example 82, 3-(Cyclopentylsulfanyl)-1-{1-[(4-methoxyphenyl)carbonyl]-1H-pyrazol-3-yl}-6,6-dimethyl-6,7-dihydro-2-benzothiophen-4(5H)-one] here?
A: 3400 nM

Q: For `CCCC1CCc2c(-c3cc[nH]n3)sc(SC)c2C1=O` (stereo not shown) [Example 92, 3-(Methylsulfanyl)-5-propyl-1-(1H-pyrazol-3-yl)-6,7-dihydro-2-benzothiophen-4(5H)-one], which IC50 is on record?
A: 310 nM

Q: How did the IC50 turn out when `CC1(C)CC(=O)c2c(SCCCCCCO)sc(-c3cc[nH]n3)c2C1` [Example 19, 3-[(6-Hydroxyhexyl)sulfanyl]-6,6-dimethyl-1-(1H-pyrazol-3-yl)-6,7-dihydro-2-benzothiophen-4(5H)-one] was run?
A: 60 nM

Q: Which IC50 does the source give for `CC1(C)CC(=O)c2c(NC3CCCC3)sc(-c3ccn(C(=O)Nc4ccncc4)n3)c2C1` [Example 75, 3-[3-(Cyclopentylamino)-6,6-dimethyl-4-oxo-4,5,6,7-tetrahydro-2-benzothiophen-1-yl]-N-(pyridin-4-yl)-1H-pyrazole-1-carboxamide] here?
A: 720 nM

Q: How did the IC50 turn out when `CN1CCN(CCCNc2sc(-c3cc[nH]n3)c3c2C(=O)CC(C)(C)C3)CC1` [Example 42, 6,6-Dimethyl-3-{[3-(4-methylpiperazin-1-yl)propyl]amino}-1-(1H-pyrazol-3-yl)-6,7-dihydro-2-benzothiophen-4(5H)-one] was run?
A: 420 nM

Q: `CCCCSc1sc(-c2cc[nH]n2)c2c1C(=O)CC(C)(C)C2` [Example 27, 3-(Butylsulfanyl)-6,6-dimethyl-1-(1H-pyrazol-3-yl)-6,7-dihydro-2-benzothiophen-4(5H)-one] was tested. Which IC50 did it give?
A: 140 nM

Q: How did the IC50 turn out when `CC(C)Sc1sc(-c2cc[nH]n2)c2c1C(=O)CC(C)(C)C2` [Example 9, 6,6-Dimethyl-3-(propan-2-ylsulfanyl)-1-(1H-pyrazol-3-yl)-6,7-dihydro-2-benzothiophen-4(5H)-one] was run?
A: 140 nM

Q: With `CN1CCN(c2sc(-c3cc[nH]n3)c3c2C(=O)CC(C)(C)C3)CC1` [Example 43, 6,6-Dimethyl-3-(4-methylpiperazin-1-yl)-1-(1H-pyrazol-3-yl)-6,7-dihydro-2-benzothiophen-4(5H)-one] as the compound, how does the IC50 read?
A: 4000 nM

Q: With `CC1(C)CC(=O)c2c(NC3CCCC3)sc(-c3ccn(C(=O)Nc4ccc(C#N)cc4)n3)c2C1` [Example 74, N-(4-Cyanophenyl)-3-[3-(cyclopentylamino)-6,6-dimethyl-4-oxo-4,5,6,7-tetrahydro-2-benzothiophen-1-yl]-1H-pyrazole-1-carboxamide] as the compound, how does the IC50 read?
A: 190 nM

Q: For `CC1(C)CC(=O)c2c(S(C)(=O)=O)sc(-c3cc[nH]n3)c2C1` [Example 6, 6,6-Dimethyl-3-(methylsulfonyl)-1-(1H-pyrazol-3-yl)-6,7-dihydro-2-benzothiophen-4(5H)-one], which IC50 is on record?
A: 2800 nM

Q: `CCC(C)CSc1sc(-c2cc[nH]n2)c2c1C(=O)CC(C)(C)C2` (stereo not shown) [Example 18, 6,6-Dimethyl-3-[(2-methylbutyl)sulfanyl]-1-(1H-pyrazol-3-yl)-6,7-dihydro-2-benzothiophen-4(5H)-one] was tested. Which IC50 did it give?
A: 220 nM

Q: Which IC50 does the source give for `CC1(C)CC(=O)c2c(SCC(F)(F)F)sc(-c3cc[nH]n3)c2C1` [Example 29, 6,6-Dimethyl-1-(1H-pyrazol-3-yl)-3-[(2,2,2-trifluoroethyl)sulfanyl]-6,7-dihydro-2-benzothiophen-4(5H)-one] here?
A: 250 nM

Q: `CC1(C)CC(=O)c2c(Oc3ccccc3)sc(-c3cc[nH]n3)c2C1` [Example 55, 6,6-Dimethyl-3-phenoxy-1-(1H-pyrazol-3-yl)-6,7-dihydro-2-benzothiophen-4(5H)-one] was tested. Which IC50 did it give?
A: 4200 nM
